Starred links: 1 amine or outer side, 2 acyl side, 3 side chain; linkers in the order of their positions; H or OH if unused. Positions of bridges follow the written chain, without caps; N, C: chain ends. Residues, ends and D or L forms follow the SMILES beside them. *: point of attachment. X9 = CC(C)[C@@H](CNC(N)=O)NC(=O)NC[C@H](CSCc1ccc(-c2ccc(C[*:1])cc2)cc1)NC(=O)NC[C@H](C)N[*:2]; X12 = CC(C)[C@@H](CNC(N)=O)NC(=O)NC[C@H](C)NC(=O)NC[C@H](CSCc1ccc(C[*:1])cc1)N[*:2]; X1 = CC(C)[C@@H](CNC(N)=O)NC(=O)NC[C@H](C)NC(=O)NC[C@H](CSCCCCCC[*:1])N[*:2]; X13 = CC(C)[C@@H](CNC(N)=O)NC(=O)NC[C@H](C)NC(=O)NC[C@H](CSCCCCC[*:1])N[*:2]; X6 = CC(C)[C@@H](CNC(N)=O)NC(=O)NC[C@H](CSCCCCCC[*:1])NC(=O)NC[C@H](C)N[*:2]; X10 = CC(C)[C@@H](CNC(N)=O)NC(=O)NC[C@H](CSCCC[*:1])NC(=O)NC[C@H](C)N[*:2]; X8 = C[C@@H](CNC(N)=O)NC(=O)NC[C@H](C)NC(=O)NC[C@H](CSC/C=C/C[*:1])N[*:2]; X3 = CC(C)[C@@H](CNC(N)=O)NC(=O)NC[C@H](C)NC(=O)NC[C@H](C)N*; CH2CONHCH2CH2NHCOCH2 = O=C(C[*:1])NCCNC(=O)C[*:2]; pXylylene = c1cc(C[*:2])ccc1C[*:1]; X14 = C(=C\C[*:2])/C[*:1]; X11 = C(CCC[*:2])CC[*:1]; CH2CH2 = C(C[*:2])[*:1]; X7 = C(CC[*:1])CC[*:2]
Legend:
[1] = molecular target: Tumour suppressor p53/oncoprotein Mdm2 (Homo sapiens) (UniProt P04637+Q00987); experiment: PROTAC activity at human MDM2/p53 extracted from Escherichia coli interaction by measuring inhibition of interaction at 100 nM by time-resolved fluorescence energy transfer (TRFRET) detection method relative to control; assay type: protein assay
[2] = molecular target: Tumour suppressor protein p53/Mdm4 (Homo sapiens) (UniProt P04637+O15151); experiment: PROTAC activity at human DMX/p53 extracted from Escherichia coli interaction at 100 nM by measuring inhibition of interaction by time-resolved fluorescence energy transfer (TRFRET) detection method relative to control; assay type: protein assay
[3] = molecular target: Tumour suppressor protein p53/Mdm4 (Homo sapiens, UniProt O15151); experiment: PROTAC activity at human DMX/p53 extracted from Escherichia coli interaction by measuring inhibition of interaction by time-resolved fluorescence energy transfer (TRFRET) detection method; assay type: protein assay
[4] = PROTAC activity at human DM2/p53 extracted from Escherichia coli interaction by measuring inhibition of interaction by time-resolved fluorescence energy transfer (TRFRET) detection method

Chain of Tumour suppressor protein p53/Mdm4 (Homo sapiens) (O15151 whole entry, looked up): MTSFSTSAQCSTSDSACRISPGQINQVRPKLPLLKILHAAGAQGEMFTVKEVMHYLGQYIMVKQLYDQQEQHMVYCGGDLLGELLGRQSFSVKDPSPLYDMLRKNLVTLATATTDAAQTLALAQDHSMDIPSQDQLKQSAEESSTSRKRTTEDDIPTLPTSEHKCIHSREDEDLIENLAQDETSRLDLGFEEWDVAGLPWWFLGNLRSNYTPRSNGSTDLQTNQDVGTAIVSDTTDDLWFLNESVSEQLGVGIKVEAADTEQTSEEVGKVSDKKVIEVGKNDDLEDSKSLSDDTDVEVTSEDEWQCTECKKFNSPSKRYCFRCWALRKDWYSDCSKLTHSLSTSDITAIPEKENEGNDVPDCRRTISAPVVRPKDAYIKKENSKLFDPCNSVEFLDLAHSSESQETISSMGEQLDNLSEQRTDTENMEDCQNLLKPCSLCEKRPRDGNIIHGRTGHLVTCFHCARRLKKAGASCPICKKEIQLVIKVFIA
Chain of Tumour suppressor protein p53/Mdm4 (Homo sapiens) (P04637 whole entry, looked up): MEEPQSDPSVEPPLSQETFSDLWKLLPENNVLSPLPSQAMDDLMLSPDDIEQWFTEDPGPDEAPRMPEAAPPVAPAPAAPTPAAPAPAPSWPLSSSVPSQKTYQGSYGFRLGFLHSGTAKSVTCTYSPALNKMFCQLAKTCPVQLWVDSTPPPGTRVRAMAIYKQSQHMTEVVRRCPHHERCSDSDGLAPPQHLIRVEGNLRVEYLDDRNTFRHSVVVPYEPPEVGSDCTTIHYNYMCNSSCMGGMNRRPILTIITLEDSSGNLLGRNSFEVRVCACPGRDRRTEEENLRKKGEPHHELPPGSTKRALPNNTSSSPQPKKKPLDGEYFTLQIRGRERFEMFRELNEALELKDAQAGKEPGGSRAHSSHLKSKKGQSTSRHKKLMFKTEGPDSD
Chain of Tumour suppressor p53/oncoprotein Mdm2 (Homo sapiens) (P04637 whole entry, looked up): as above
Chain of Tumour suppressor p53/oncoprotein Mdm2 (Homo sapiens) (Q00987 whole entry, looked up): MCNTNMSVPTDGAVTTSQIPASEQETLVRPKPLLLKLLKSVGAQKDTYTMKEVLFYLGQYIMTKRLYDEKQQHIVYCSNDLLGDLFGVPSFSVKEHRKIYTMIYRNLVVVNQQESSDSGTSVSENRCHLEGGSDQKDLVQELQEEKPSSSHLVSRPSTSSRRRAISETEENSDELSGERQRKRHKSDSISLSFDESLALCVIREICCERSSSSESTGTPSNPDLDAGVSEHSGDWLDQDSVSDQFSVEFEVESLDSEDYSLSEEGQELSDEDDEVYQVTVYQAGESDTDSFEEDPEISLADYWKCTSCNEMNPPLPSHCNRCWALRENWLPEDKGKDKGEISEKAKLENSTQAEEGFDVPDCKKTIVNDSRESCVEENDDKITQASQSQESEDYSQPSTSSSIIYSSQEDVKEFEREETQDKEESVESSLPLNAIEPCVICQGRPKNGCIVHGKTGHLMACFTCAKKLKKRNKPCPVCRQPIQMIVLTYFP
Chain of Tumour suppressor protein p53/Mdm4 (P04637 whole entry): as the sequence (P04637 whole entry, looked up) above
Chain of Tumour suppressor protein p53/Mdm4 (O15151 whole entry): as the sequence (O15151 whole entry, looked up) above

| SMILES | inhibition [1] [%] | inhibition [2] [%] | IC50 [3] [µM] | IC50 [4] [µM] |
| --- | --- | --- | --- | --- |
| CC(C)[C@@H](CNC(N)=O)NC(=O)NC[C@H](C)NC(=O)NC[C@H](C)NC(=O)[C@H](Cc1c[nH]c2ccccc12)NC(=O)[C@H](Cc1ccc(O)cc1)NC(=O)[C@@H]1CSCCCCCSC[C@H](N)C(=O)N[C@@H](CO)C(=O)N[C@@H](Cc2ccccc2)C(=O)N[C@@H](C)C(=O)N1 (H-CSFACYW-X3; linker 1-5 via X7) | 58 | 16 | – | – |
| CC(C)[C@@H](CNC(N)=O)NC(=O)NC[C@H](C)NC(=O)NC[C@@H]1CSCc2ccc(cc2)CSC[C@H](NC(=O)[C@H](Cc2ccccc2)NC(=O)[C@H](CO)NC(=O)[C@@H](N)[C@@H](C)O)C(=O)N[C@@H](CCC(=O)O)C(=O)N[C@@H](Cc2ccc(O)cc2)C(=O)N[C@@H](Cc2c[nH]c3ccccc23)C(=O)N1 (H-TSFCEYW; linker 4-C via X12) | 21 | -4 | – | – |
| CC(C)[C@@H](CNC(N)=O)NC(=O)NC[C@H](C)NC(=O)NC[C@H](C)NC(=O)[C@H](Cc1c[nH]c2ccccc12)NC(=O)[C@H](Cc1ccc(O)cc1)NC(=O)[C@H](CCC(=O)O)NC(=O)[C@H](C)NC(=O)[C@H](Cc1ccccc1)NC(=O)[C@H](CO)NC(=O)[C@@H](NC(=O)[C@H](CCCNC(=N)N)NC(=O)[C@H](CCCNC(=N)N)NC(=O)[C@@H](N)CCCNC(=N)N)[C@@H](C)O (H-RRRTSFAEYW-X3) | 95 | 81 | – | – |
| CC(C)[C@@H](CNC(N)=O)NC(=O)NC[C@H](C)NC(=O)NC[C@@H]1CSCCCCCSC[C@H](NC(=O)[C@H](Cc2ccccc2)NC(=O)[C@H](CO)NC(=O)[C@@H](N)[C@@H](C)O)C(=O)N[C@@H](CCC(=O)O)C(=O)N[C@@H](Cc2ccc(O)cc2)C(=O)N[C@@H](Cc2c[nH]c3ccccc23)C(=O)N1 (H-TSFCEYW; linker 4-C via X13) | 79 | 47 | – | – |
| CC(C)[C@@H](CNC(N)=O)NC(=O)NC[C@H](C)NC(=O)NC[C@H](C)NC(=O)[C@H](Cc1c[nH]c2ccccc12)NC(=O)[C@H](Cc1ccc(O)cc1)NC(=O)[C@@H]1CSCCCCCCSC[C@H](N)C(=O)N[C@@H](CO)C(=O)N[C@@H](Cc2ccccc2)C(=O)N[C@@H](C)C(=O)N1 (H-CSFACYW-X3; linker 1-5 via X11) | 15 | 1 | – | – |
| CC(C)[C@@H](CNC(N)=O)NC(=O)NC[C@H](C)NC(=O)NC[C@H](C)NC(=O)[C@H](Cc1c[nH]c2ccccc12)NC(=O)[C@H](Cc1ccc(O)cc1)NC(=O)[C@@H]1CSC/C=C/CSC[C@H](N)C(=O)N[C@@H](CO)C(=O)N[C@@H](Cc2ccccc2)C(=O)N[C@@H](C)C(=O)N1 (H-CSFACYW-X3; linker 1-5 via X14) | 88 | 68 | – | – |
| CC(C)[C@@H](CNC(N)=O)NC(=O)NC[C@H](C)NC(=O)NC[C@@H]1CSCCCCCCSC[C@H](NC(=O)[C@H](Cc2ccccc2)NC(=O)[C@H](CO)NC(=O)[C@@H](N)[C@@H](C)O)C(=O)N[C@@H](CCCNC(=N)N)C(=O)N[C@@H](Cc2ccc(O)cc2)C(=O)N[C@@H](Cc2c[nH]c3ccccc23)C(=O)N1 (H-TSFCRYW; linker 4-C via X1) | 42 | 2 | – | – |
| CC(C)[C@@H](CNC(N)=O)NC(=O)NC[C@@H]1CSCCCCCCSC[C@H](N)C(=O)N[C@@H](CO)C(=O)N[C@@H](Cc2ccccc2)C(=O)N[C@@H](C)C(=O)N[C@@H](CCC(=O)O)C(=O)N[C@@H](Cc2ccc(O)cc2)C(=O)N[C@@H](Cc2c[nH]c3ccccc23)C(=O)N[C@@H](C)CNC(=O)N1 (H-CSFAEYW; linker 1-C via X6) | 70 | 54 | – | – |
| CC(C)[C@@H](CNC(N)=O)NC(=O)NC[C@H](C)NC(=O)NC[C@@H]1CSCCCCCCSC[C@H](NC(=O)[C@H](Cc2ccccc2)NC(=O)[C@H](CO)NC(=O)[C@@H](N)[C@@H](C)O)C(=O)N[C@@H](C)C(=O)N[C@@H](Cc2ccc(O)cc2)C(=O)N[C@@H](Cc2c[nH]c3ccccc23)C(=O)N1 (H-TSFCAYW; linker 4-C via X1) | 42 | -3 | – | – |
| CC(C)[C@@H](CNC(N)=O)NC(=O)NC[C@H](C)NC(=O)NC[C@H](C)NC(=O)[C@H](Cc1c[nH]c2ccccc12)NC(=O)[C@H](Cc1ccc(O)cc1)NC(=O)[C@@H]1CSSC[C@H](N)C(=O)N[C@@H](CO)C(=O)N[C@@H](Cc2ccccc2)C(=O)N[C@@H](C)C(=O)N1 (H-CSFACYW-X3; disulfide 1-5) | 20 | -4 | – | – |
| CC(C)[C@@H](CNC(N)=O)NC(=O)NC[C@H](C)NC(=O)NC[C@H](C)NC(=O)[C@H](Cc1c[nH]c2ccccc12)NC(=O)[C@H](Cc1ccc(O)cc1)NC(=O)[C@@H]1CSCCCCCSC[C@H](NC(=O)[C@@H](N)[C@@H](C)O)C(=O)N[C@@H](Cc2ccccc2)C(=O)N[C@@H](C)C(=O)N1 (H-TCFACYW-X3; linker 2-5 via X7) | 30 | 12 | – | – |
| CC(C)[C@@H](CNC(N)=O)NC(=O)NC[C@H](C)NC(=O)NC[C@H](C)NC(=O)[C@H](Cc1c[nH]c2ccccc12)NC(=O)[C@H](Cc1ccc(O)cc1)NC(=O)[C@H](CCC(=O)O)NC(=O)[C@H](C)NC(=O)[C@H](Cc1ccccc1)NC(=O)[C@H](CO)NC(=O)[C@@H](N)CCCCN (H-KSFAEYW-X3) | 98 | 85 | – | – |
| CC(C)[C@@H](CNC(N)=O)NC(=O)NC[C@H](C)NC(=O)NC[C@H](C)NC(=O)[C@H](Cc1c[nH]c2ccccc12)NC(=O)[C@H](Cc1ccc(O)cc1)NC(=O)[C@@H]1CSCc2ccc(cc2)CSC[C@H](N)C(=O)N[C@@H](CO)C(=O)N[C@@H](Cc2ccccc2)C(=O)N[C@@H](C)C(=O)N1 (H-CSFACYW-X3; linker 1-5 via pXylylene) | 37 | 14 | – | – |
| CC(C)[C@@H](CNC(N)=O)NC(=O)NC[C@H](C)NC(=O)NC[C@@H]1CSCCCCCCSC[C@H](NC(=O)[C@H](Cc2ccccc2)NC(=O)[C@H](CO)NC(=O)[C@@H](N)[C@@H](C)O)C(=O)N[C@@H](CCC(N)=O)C(=O)N[C@@H](Cc2ccc(O)cc2)C(=O)N[C@@H](Cc2c[nH]c3ccccc23)C(=O)N1 (H-TSFCQYW; linker 4-C via X1) | 85 | 36 | – | – |
| CC(C)[C@@H](CNC(N)=O)NC(=O)NC[C@@H]1CSCCCSC[C@H](NC(=O)[C@H](C)NC(=O)[C@H](Cc2ccccc2)NC(=O)[C@H](CO)NC(=O)[C@@H](N)[C@@H](C)O)C(=O)N[C@@H](Cc2ccc(O)cc2)C(=O)N[C@@H](Cc2c[nH]c3ccccc23)C(=O)N[C@@H](C)CNC(=O)N1 (H-TSFACYW; linker 5-C via X10) | 15 | 4 | – | – |
| CC(C)[C@@H](CNC(N)=O)NC(=O)NC[C@@H]1CSCc2ccc(cc2)-c2ccc(cc2)CSC[C@H](N)C(=O)N[C@@H](CO)C(=O)N[C@@H](Cc2ccccc2)C(=O)N[C@@H](C)C(=O)N[C@@H](CCC(=O)O)C(=O)N[C@@H](Cc2ccc(O)cc2)C(=O)N[C@@H](Cc2c[nH]c3ccccc23)C(=O)N[C@@H](C)CNC(=O)N1 (H-CSFAEYW; linker 1-C via X9) | 7 | 10 | – | – |
| CC(C)[C@@H](CNC(N)=O)NC(=O)NC[C@H](C)NC(=O)NC[C@H](C)NC(=O)[C@H](Cc1c[nH]c2ccccc12)NC(=O)[C@H](Cc1ccc(O)cc1)NC(=O)[C@@H]1CSCC(=O)NCCNC(=O)CSC[C@H](N)C(=O)N[C@@H](CO)C(=O)N[C@@H](Cc2ccccc2)C(=O)N[C@@H](C)C(=O)N1 (H-CSFACYW-X3; linker 1-5 via CH2CONHCH2CH2NHCOCH2) | 83 | 47 | – | – |
| CC(=O)N[C@@H](CCCCN)C(=O)N[C@H](C(=O)N[C@@H](Cc1ccccc1)C(=O)N[C@@H](C)C(=O)N[C@@H](CCC(=O)O)C(=O)N[C@@H](Cc1ccc(O)cc1)C(=O)N[C@@H](Cc1c[nH]c2ccccc12)C(=O)N[C@@H](C)CNC(=O)N[C@@H](C)CNC(=O)N[C@H](CNC(N)=O)C(C)C)[C@@H](C)O (Ac-KTFAEYW-X3) | – | – | 23.8 | 0.0057 |
| CC(C)[C@@H](CNC(N)=O)NC(=O)NC[C@H](C)NC(=O)NC[C@H](C)NC(=O)[C@H](Cc1c[nH]c2ccccc12)NC(=O)[C@H](Cc1ccc(O)cc1)NC(=O)[C@@H]1CSCCSC[C@H](N)C(=O)N[C@@H](CO)C(=O)N[C@@H](Cc2ccccc2)C(=O)N[C@@H](C)C(=O)N1 (H-CSFACYW-X3; linker 1-5 via CH2CH2) | 47 | 39 | – | – |
| CC(C)[C@@H](CNC(N)=O)NC(=O)NC[C@H](C)NC(=O)NC[C@H](C)NC(=O)[C@H](Cc1c[nH]c2ccccc12)NC(=O)[C@H](Cc1ccc(O)cc1)NC(=O)[C@@H]1CSCC(=O)NCCNC(=O)CSC[C@H](NC(=O)[C@@H](N)[C@@H](C)O)C(=O)N[C@@H](Cc2ccccc2)C(=O)N[C@@H](C)C(=O)N1 (H-TCFACYW-X3; linker 2-5 via CH2CONHCH2CH2NHCOCH2) | 73 | 38 | – | – |
| C[C@@H](CNC(N)=O)NC(=O)NC[C@H](C)NC(=O)NC[C@@H]1CSC/C=C/CSC[C@H](NC(=O)[C@H](Cc2ccccc2)NC(=O)[C@H](CO)NC(=O)[C@@H](N)[C@@H](C)O)C(=O)N[C@@H](CCC(=O)O)C(=O)N[C@@H](Cc2ccc(O)cc2)C(=O)N[C@@H](Cc2c[nH]c3ccccc23)C(=O)N1 (H-TSFCEYW; linker 4-C via X8) | 82 | 57 | – | – |
| CC(C)[C@@H](CNC(N)=O)NC(=O)NC[C@H](C)NC(=O)NC[C@H](C)NC(=O)[C@H](Cc1c[nH]c2ccccc12)NC(=O)[C@H](Cc1ccc(O)cc1)NC(=O)[C@@H]1CSSC[C@H](NC(=O)[C@@H](N)[C@@H](C)O)C(=O)N[C@@H](Cc2ccccc2)C(=O)N[C@@H](C)C(=O)N1 (H-TCFACYW-X3; disulfide 2-5) | 50 | 23 | – | – |
| CC(C)[C@@H](CNC(N)=O)NC(=O)NC[C@H](C)NC(=O)NC[C@H](C)NC(=O)[C@H](Cc1c[nH]c2ccccc12)NC(=O)[C@H](Cc1ccc(O)cc1)NC(=O)[C@@H]1CSCCCCCCSC[C@H](NC(=O)[C@@H](N)[C@@H](C)O)C(=O)N[C@@H](Cc2ccccc2)C(=O)N[C@@H](C)C(=O)N1 (H-TCFACYW-X3; linker 2-5 via X11) | 36 | 14 | – | – |

From ChEMBL document CHEMBL6087461, “Cell-Permeable Peptide Inhibitors of the p53-hDM2 Interaction via Foldamer Helix Mimicry and Bis-Thioether Stapling” (J Med Chem, 2025)
